Measurements reported in US10837969B2, “Therapeutic and diagnostic methods for autism spectrum disorders and other conditions” (THE JOHNS HOPKINS UNIVERSITY, priority 2012, dated 2020).

Key:
[1] = biological target: T1, AT-1 receptor (Homo sapiens, UniProt P30556); conditions: in vitro, IgG from pre-eclamptic patients; cited from earlier work
T1 construct: found prominent expression of the receptor on the cell surface; endogenous in cells; host or cells: human fetal brain-derived neural stem/progenitor cells (NSC/NPC), 7-8 weeks gestation
T1 sequence (P30556 1-359): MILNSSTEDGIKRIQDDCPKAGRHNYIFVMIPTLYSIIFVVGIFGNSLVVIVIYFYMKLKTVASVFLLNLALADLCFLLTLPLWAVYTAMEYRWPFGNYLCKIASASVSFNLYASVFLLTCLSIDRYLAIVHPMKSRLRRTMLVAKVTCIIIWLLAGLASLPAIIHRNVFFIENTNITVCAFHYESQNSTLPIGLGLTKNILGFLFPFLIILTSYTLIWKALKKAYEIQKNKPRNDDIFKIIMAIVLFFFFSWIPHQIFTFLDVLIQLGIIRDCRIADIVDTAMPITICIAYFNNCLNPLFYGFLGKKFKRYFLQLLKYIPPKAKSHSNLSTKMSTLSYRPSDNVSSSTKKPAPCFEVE

[2] = tested on: human NSC; experiment: NSC proliferation by BrdU incorporation; format: cell-based; conditions: preliminary in vitro study
Experimental: Cell Cultures. Reagents for cell culture were purchased from Invitrogen (Carlsbad, Calif.) if not otherwise specified. Human NPC were cultured as published previously ^24 in accordance with NIH guidelines and following approval by the Institutional Review Board at Johns Hopkins University and the National Institutes of Health. Briefly, human fetal brain specimens of 7-8 weeks gestation were obtained from Birth Defects Research Laboratory, University of Washington, Seattle. The tissues were then triturated into single cells after removing meninges and blood vessels. […] NSC cultures were ready for experiments 4-5 days after replating and >98% of the cells expressed the neural stem cell marker, nestin while <1% of the cells expressed glial fibrillary acidic protein (GFAP, a marker for astrocytes) or beta-III tubulin (a neuronal cell marker) as determined by immunocytochemistry.
Cell Proliferation and Differentiation Assays. Cell proliferation was assessed by BrdU incorporation. […]
MCAD-IgG Inhibits NSC Proliferation. […] The number of proliferating cells were determined by calculating the percentage of BrdU immunopositive cells. […] Cell toxicity was also evaluated using cellquanti-blue assay. […]

[3] = tested on: NSC treated with MCAD-IgG; experiment: Attenuation of MCAD-IgG effect on NSC differentiation (beta-III tubulin/GFAP immunostaining); format: cell-based, human
Experimental: Cell Proliferation and Differentiation Assays. Cell proliferation was assessed by BrdU incorporation. The cells were first treated with MCAD or control antibodies for 18 hours and then for 6 hours with BrdU (Sigma) followed by immunostaining for BrdU. When subjected to differentiation, media was replaced with DMEM/F12 containing 2% FBS. The NPC were capable of differentiating into neurons (40-60%) and astrocytes (20-50%) after 4-7 days. Immunocytochemistry. Cells were fixed in 4% (w/v) paraformaldehyde and permeabilized by incubation in 0.5% (v/v) Triton X-100 in PBS (PBS-T) for 20 min. For BrdU staining, the cells were also denatured in 2N HCl at 37° C. for 30 min and rinsed twice in 0.1 M sodium borate, pH 8.5. Cells were immunostained using monoclonal anti-BrdU (1:1000; Sigma-Aldrich), monoclonal anti-β-III-tubulin (1:1000; Promega), rabbit anti-GFAP (1:1000; Sigma-Aldrich), monoclonal anti-AT-1 (1:50; Abcam, Cambridge Mass.) or rabbit anti-active caspase-3 (1:1000; Sigma-Aldrich), followed by corresponding secondary antibodies (anti-rabbit Alexa Fluor 488, 1:400; anti-mouse Alexa Fluor […], 1:400; Invitrogen) and 4′,6-diamidino-2-phenylindole (DAPI) for nuclear staining. Images were acquired on a Zeiss LSM 510 META multiphoton confocal system (Carl Zeiss). […] Neurogenesis was determined after 4 days using immunostaining for beta-III tubulin and GFAP.

[4] = tested on: NSC; experiment: CellQuanti-Blue cytotoxicity assay; format: cell-based; conditions: higher concentrations, 10-100 uM
Experimental: Cytotoxicity Assays. Cytotoxicity was determined by using CellQuanti-Blue Cell Viability Assay kit (BioAssay Systems) as previously published^24. Briefly, NSCs were cultured in poly-D-lysine coated 96-well plates and used for experiments at ˜60% confluence. […] After 24 hours, CellQuanti-Blue solution (10 μl/well) was added and the cells were incubated for 1 hour. The fluorescence was quantified at an excitation wavelength of 530 nm and emission wavelength of 590 nm using a fluorescence plate reader.
MCAD-IgG Inhibits NSC Proliferation. The effect of MCAD on NSC proliferation was studied by exposing cultured human NSC to corresponding concentrations (1:500 to 1:50) of MCAD or MUC antibodies for 24 hours in the presence of BrdU for the last 6 hours. The number of proliferating cells were determined by calculating the percentage of BrdU immunopositive cells. […] Another group of NSC similarly treated with the MCAD or MUC antibodies were also immunostained for active-caspase-3 to determine if MCAD-IgG could induce apoptosis in these cells. […] Cell toxicity was also evaluated using cellquanti-blue assay. To exclude the effect of cell proliferation, NSC cultures were treated with MCAD- or MUC-IgG in growth factor-free media for 24 hours before the cellquanti-blue solution was added. […] Thus MCAD-IgG inhibited NSC proliferation without causing cell death.

## CCCCc1nc(Cl)c(CO)n1Cc1ccc(-c2ccccc2-c2nn[nH]n2)cc1 [losartan]
[1]
  blockade of patient IgG-induced constriction of villus veins and arteries: could be blocked

## Fc1ccc([C@@H]2CCNC[C@H]2COc2ccc3c(c2)OCO3)cc1 [Paroxetine, paroxetine]
[2]
  proliferation of NSC: increased proliferation of NSC in a concentration-dependent manner
[3]; 20 nM-2 uM, 1 hour prior to MCAD-IgG (1:50), after 4 days
  effect on MCAD-IgG caused inhibition of neurogenesis and enhanced astroglial differentiation: reversed MCAD-IgG caused inhibition of neurogenesis and enhanced astroglial differentiation

## CCCc1nc2c(C)cc(-c3nc4ccccc4n3C)cc2n1Cc1ccc(-c2ccccc2C(=O)O)cc1 [Telmisartan]
[4]
  toxicity in cells, cellquanti-blue: caused toxicity in cells
[3]; 10 nM, pretreatment 30 min prior to IgG
  effect on MCAD-IgG caused changes in neuronal and astroglial differentiation: significantly attenuated MCAD-IgG caused effect on neuronal and astroglial differentiation
